From PubChem BioAssay (NCI)
“And” between values parts separate entries of the source, which are not always exact repeats. Equal values may be shown once.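 How tested: cells in 96-well plates exposed to compound for 48 hours at five concentrations. GI50: concentration for 50% inhibition of growth. TGI: concentration producing complete growth inhibition.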

How the values were obtained:
Assay in all cases: DTP human tumour cell line panel, 48 h
MCF7 breast = system: MCF7 breast
BT-549 breast = system: BT-549 breast
HOP-92 NSCLC = system: HOP-92 NSCLC
PC-3 prostate = system: PC-3 prostate
CAKI-1 renal = system: CAKI-1 renal
M14 melanoma = system: M14 melanoma
ACHN renal = system: ACHN renal
HCT-15 colon = system: HCT-15 colon
HCC-2998 colon = system: HCC-2998 colon
MOLT-4 leukemia = system: MOLT-4 leukemia

SMILES | GI50 (MCF7 breast) | TGI (MCF7 breast) | GI50 (BT-549 breast) | TGI (BT-549 breast) | GI50 (HOP-92 NSCLC) | TGI (HOP-92 NSCLC) | GI50 (PC-3 prostate) | TGI (PC-3 prostate) | GI50 (CAKI-1 renal) | TGI (CAKI-1 renal) | GI50 (M14 melanoma) | TGI (M14 melanoma) | GI50 (ACHN renal) | TGI (ACHN renal) | GI50 (HCT-15 colon) | TGI (HCT-15 colon) | GI50 (HCC-2998 colon) | TGI (HCC-2998 colon) | GI50 (MOLT-4 leukemia) | TGI (MOLT-4 leukemia)
COc1ccc(/C(C)=C(\c2ccc(Cl)cc2)c2ccc(OCCN3CCCCC3)cc2)cc1F | 3.34 µM | 8.24 µM | 3.11 µM | 7.47 µM | 2.5 µM | 6.08 µM | 2.67 µM | 7.47 µM | 3.14 µM | 6.48 µM | 2.61 µM | 6.17 µM | 4.93 µM | 14.4 µM | 0.943 µM | 3.37 µM | 3.21 µM | 7.14 µM | 3.4 µM | 11.3 µM
CC(CCC/C=C/CCCN(C)C(=N)N)CC(C)C1OC(=O)C(C)C(O)/C=C/C(C)C(O)C(C)C(O)C(C)C(O)CCCC(O)CC2(O)OC(CC(OC(=O)CC(=O)O)CC(O)CC(O)C(C)C(O)/C=C/C=C/C1C)CC(O)C2O (configuration not stated) | 1.79 µM and 3.53 µg/mL | 3.67 µM and 14 µg/mL | 2.19 µM and 3.16 µg/mL | 4.03 µM and 12 µg/mL | 1.92 µM and 9.74 µg/mL | 6.57 µM and 20.1 µg/mL | 3.09 µM and 4.86 µg/mL | 11.5 µM and 16 µg/mL | 2.01 µM and 7.96 µg/mL | 5.24 µM and 17.7 µg/mL | 2.51 µM and 9.44 µg/mL | 6.32 µM and 23.9 µg/mL | 2 µM and 5.72 µg/mL | 4.31 µM and 20.6 µg/mL | 2.35 µM and 11.9 µg/mL | 5.33 µM and 28.9 µg/mL | 3.18 µM and 10.9 µg/mL | 12.1 µM and 23.4 µg/mL | 2.78 µM and 11.1 µg/mL | 5.88 µM and 28.4 µg/mL
COc1ccc(-c2nccn2-c2cc(OC)c(OC)c(OC)c2)cc1 | 1.27 µM | > 100 µM | > 32.1 µM | > 100 µM | 7.01 µM | > 100 µM | 1.81 µM | > 100 µM | 1.22 µM | > 77.1 µM | 6 µM | > 100 µM | 6.07 µM | > 100 µM | 1.16 µM | > 100 µM | 1.09 µM | 39.9 µM | 18.3 µM | > 100 µM
COc1ccc(C2CC(c3cccc(Nc4ccnc5cc(Cl)ccc45)c3)=NN2c2ccc(Cl)cc2)cc1 (configuration not stated) | 3.45 µM | 44.3 µM | 2.67 µM | 26.6 µM | 10.8 µM | 66.3 µM | 1.18 µM | 64.5 µM | 2.38 µM | > 100 µM | 0.752 µM | 11 µM | 4.63 µM | 90.6 µM | 2.3 µM | 18.7 µM | 3.41 µM | 15.1 µM | 3.18 µM | 69.5 µM
C/C=C\C(C)=C/C(C)C(=O)CC(O)CC1CC(=O)NC(=O)C1 (configuration not stated) | – | > 100 µM | – | > 100 µM | – | > 100 µM | – | > 100 µM | – | > 67.5 µM | – | > 100 µM | – | > 100 µM | – | > 100 µM | – | > 100 µM | – | > 28.2 µM
O=C(NC(c1ccccc1)C(O)C(=O)OCc1ccc2c(c1)C(=O)c1ccccc1C2=O)c1ccccc1 (configuration not stated) | – | > 100 µM | – | > 100 µM | – | 7.91 µM | – | 42.1 µM | – | 20.1 µM | – | > 80.5 µM | – | 43.7 µM | – | > 100 µM | – | > 100 µM | – | > 100 µM
COc1ccc(N2CCN(CC(=O)N3CCN(c4nnc(-c5ccc(Cl)cc5)c(-c5ccc(Cl)cc5)n4)CC3)CC2)cc1 | 3.91 µM | > 100 µM | 4.83 µM | > 100 µM | 11.1 µM | 30.5 µM | 6.56 µM | > 100 µM | 16.6 µM | 82.7 µM | 12.7 µM | > 100 µM | 6.42 µM | 55.6 µM | 6.8 µM | > 100 µM | 9.94 µM | > 100 µM | 3.1 µM | > 100 µM
Oc1ccc(-c2nc(-c3ccc4oc5ccc(-c6[nH]c(-c7ccc(O)cc7)nc6-c6ccccc6)cc5c4c3)c(-c3ccccc3)[nH]2)cc1 | 2.99 µM | 73.9 µM | 18.8 µM | 58.2 µM | 2.19 µM | 6.53 µM | 2.93 µM | 13.5 µM | 13.7 µM | 41.7 µM | 3.9 µM | > 100 µM | 5.2 µM | 20.3 µM | 3.68 µM | 29.1 µM | 3.12 µM | 9.69 µM | 2.34 µM | 7.09 µM
Cc1nc2cc(NC(=O)CN3CCN(CCN4C(=O)c5cccc6cccc(c56)C4=O)CC3)ccc2s1 | 4.08 µM | 15.5 µM | 4.86 µM | 24.1 µM | 2.13 µM | 9.05 µM | 4.5 µM | > 100 µM | 4.32 µM | > 100 µM | 8.76 µM | 23 µM | 3.5 µM | 25 µM | 3.58 µM | 16.5 µM | 6.66 µM | > 100 µM | 2.52 µM | 22.2 µM
CCS(=O)(=O)Nc1ccc(Oc2ccc(F)cc2F)c(-c2cn(C)c(=O)c3[nH]ccc23)c1 | < 0.01 µM | 14.3 µM | 0.366 µM | 21.3 µM | – | 28.3 µM | 0.0656 µM | 49.4 µM | – | – | < 0.0138 µM | 17 µM | 0.153 µM | 27.2 µM | 0.0404 µM | 19.5 µM | 0.0342 µM | 1.38 µM | 0.408 µM | 15.6 µM
N#CC1=C(N)Oc2c(ccc3ccccc23)C1c1ccccc1Cl (configuration not stated) | 0.383 µM | 15.2 µM | 1.2 µM | 7.74 µM | 2.24 µM | 15.1 µM | 0.317 µM | 16.2 µM | 0.167 µM | 20.9 µM | 0.188 µM | 3.39 µM | 0.718 µM | 19.6 µM | 0.183 µM | 11.4 µM | 0.429 µM | 11.6 µM | 0.447 µM | 17.8 µM
C#Cc1cccc(NC(=O)Nc2cccc(NC(=O)CCl)c2)c1 | 21.7 µM | > 82.5 µM | 16.3 µM | > 82.5 µM | > 82.5 µM | > 82.5 µM | 37.8 µM | > 82.5 µM | > 82.5 µM | > 82.5 µM | 23.6 µM | > 82.5 µM | 41.5 µM | > 82.5 µM | 11.8 µM | 26.7 µM | > 82.5 µM | > 82.5 µM | 12.5 µM | 81.4 µM
